Source: paper PMC10985088, “Synthesis and biological evaluation of echinomycin analogues as potential colon cancer agent” (Scientific Reports, 2024)

Tests used:
[1] = tested on: MIA PaCa-2 cells; conditions: read-out: IC50 MIA PaCa-2; human pancreatic carcinoma cell, 72 h, mean ± SE (n = 3)
Protocol: With a range of chromophore analogues in hand, their toxicity to SW620 cells was investigated by WST assays.
Basically, the evaluation was performed using methods previously reported by our group[20],[23]. Cytotoxic activities of compounds against MIA PaCa-2 (American Type Culture Collection), SW620 (European Collection of Authenticated Cell Cultures) were measured by WST-8 assay according to manufacturer’s protocol. Briefly, cells (1 × 10^4 cells/well) in a 96-well plate were cultured in medium (for MIA PaCa-2, D-MEM (Wako, Japan) containing 10% fetal bovine serum (Funakoshi, Japan), 100 units/mL penicillin G and 100 µg/mL streptomycin (Wako, Japan), for SW620, RPMI-1640 (Wako, Japan) containing 10% fetal bovine serum, 100 units/mL penicillin G and 100 µg/mL streptomycin) were cultured at 37 °C for 24 h under 5% CO2 atmosphere. Then, cells were treated with test compounds (final DMSO concentration was 1%) at 37 °C for 72 h under 5% CO2 atmosphere. Then, cells were treated with a solution of Cell Counting Kit-8® (Dojindo, Japan) for 3 h. After that, cell viabilities were determined based on the measurement of absorption at 450 nm of the wells by using TECAN Infinite® M200 microplate reader. The results were expressed as a percentage of the negative control (cells treated with DMSO only), and that value was fixed at 100%.

[2] = tested on: HIF-1α-mediated transcription; assay: HRE reporter gene assay in SW620 cells overexpressing HIF-1α; format: cell-based, human; conditions: SW620 transiently overexpressing HIF-1α, 16 h
Text: Echinomycin is known to inhibit the HIF-1 pathway by inhibiting the binding of HIF-1α to HRE[15],[21],[22]. The ability of 3 to inhibit HIF-1α-mediated transcription was investigated by using an HRE reporter gene assay in SW620 cells transiently overexpressing HIF-1α.
Figure 5 Effect of echinomycin (1), 2 and 3 on HIF-1α-dependent transcription in SW620 cells. SW620 cells were transiently transfected with empty vector pCI-neo-3 × FLAG or HIF-1α expression vector pCI-neo-3 × FLAG-HIF-1α, together with pGL3-5 × HRE-Luc and pGL4.75 [hRluc/CMV]. One day after transfection, echinomycin (1), 2, or 3 was added to the cell culture media and incubated for an additional 16 h. The cells were lysed, and a dual luciferase assay was performed. Firefly luciferase activity was normalized to Renilla luciferase activity, and the data are presented as fold induction relative to the values obtained in cells DMSO-treated cells transfected with empty vector. The error bars represent standard deviations (n = 3). *P < 0.05 and **P < 0.01 compared to DMSO-treated cells transfected with HIF-1α (Student’s test).
Basically, the assay was performed using methods previously reported by our group. […]

[3] = Serum biochemistry / blood examination of treated mice; format: in vivo; conditions: 0.4 µg/mouse i.p., Day 14
Protocol: Toxicity Body weight change is an indicator of systemic toxicity. Accordingly, the body weights of mice intraperitoneally treated with different doses (0.04 and 0.4 µg/mouse) of either 1 or 3 were measured (Fig. S1). […] A blood hematological examination (including nineteen parameters) was also conducted on these mice on Day 14 (Fig. S2). There were no significant changes in almost any of the parameters in the mice treated with either 1 or 3 at doses of 0.04 or 0.4 µg/mouse.
Male BALB/c mice (7 weeks old) were purchased from Charles River Laboratories Japan, Inc. Each compound was intraperitoneally injected daily for 14 days. […] Serum was collected by centrifuging blood at 5000 rpm for 10 min. Biochemistry was performed in Oriental Yeast Co., Ltd, Japan.

In the case of `CS[C@H]1SC[C@H]2C(=O)N(C)[C@@H](C(C)C)C(=O)OC[C@@H](NC(=O)c3cnc4ccccc4n3)C(=O)N[C@@H](C)C(=O)N(C)[C@@H]1C(=O)N(C)[C@@H](C(C)C)C(=O)OC[C@@H](NC(=O)c1cnc3ccccc3n1)C(=O)N[C@@H](C)C(=O)N2C` [Compound 1, Echinomycin], the IC50 [1] is reported as 0.75 ± 0.02 nM, the “HIF-1α-induced HRE reporter activity” value [2] is reported as “inhibited” and the “alanine aminotransferase (ALT)” value [3] is reported as “increase”. The “aspartate aminotransferase (AST)” value [3] was “increase”, the “lactate dehydrogenase (LDH)” value [3] was “increase” and the “total bilirubin (T-BIL)” value [3] was “decrease”.
